Patent publication US11814367B2, “Inhibitors of glycogen synthase 1 (GYS1) and methods of use thereof” (Maze Therapeutics, Inc., priority 2021, dated 2023)

Legend:
[1] = target: hGYS1 enzyme (recombinant hGYS1/GN1 protein) (Homo sapiens (Human), UniProt P13807); assay: GYS1 coupled enzyme assay (PK/LDH); type: biochemical; conditions: hGYS1/GN1 50 nM, UDP-Glucose 0.8 mM, G6P 1 mM; geometric mean of at least 2 runs
[2] = system: hGYS1 enzyme / glycogen synthesis in HeLa cells; assay: GYS1 cell based assay (glycogen synthesis, Glucose-glo); set-up: species or system human; conditions: Homo sapiens, 24 h incubation, 20 mM glucose, geometric mean of at least 2 runs
Outline: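 HeLa cells starved 24 h in medium containing only 1× Glutamax were plated onto compound in medium with 20 mM glucose (1% DMSO final) for 24 h, 37 °C, 5% CO2. Acid lysates were Tris-quenched, glucoamylase-digested (pH 5.3, 1 h, 37 °C) and read by Glucose-glo luminescence. IC50 came from Hill fits, as geometric mean of ≥2 runs.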

hGYS1 enzyme (recombinant hGYS1/GN1 protein), sequence (P13807 whole entry): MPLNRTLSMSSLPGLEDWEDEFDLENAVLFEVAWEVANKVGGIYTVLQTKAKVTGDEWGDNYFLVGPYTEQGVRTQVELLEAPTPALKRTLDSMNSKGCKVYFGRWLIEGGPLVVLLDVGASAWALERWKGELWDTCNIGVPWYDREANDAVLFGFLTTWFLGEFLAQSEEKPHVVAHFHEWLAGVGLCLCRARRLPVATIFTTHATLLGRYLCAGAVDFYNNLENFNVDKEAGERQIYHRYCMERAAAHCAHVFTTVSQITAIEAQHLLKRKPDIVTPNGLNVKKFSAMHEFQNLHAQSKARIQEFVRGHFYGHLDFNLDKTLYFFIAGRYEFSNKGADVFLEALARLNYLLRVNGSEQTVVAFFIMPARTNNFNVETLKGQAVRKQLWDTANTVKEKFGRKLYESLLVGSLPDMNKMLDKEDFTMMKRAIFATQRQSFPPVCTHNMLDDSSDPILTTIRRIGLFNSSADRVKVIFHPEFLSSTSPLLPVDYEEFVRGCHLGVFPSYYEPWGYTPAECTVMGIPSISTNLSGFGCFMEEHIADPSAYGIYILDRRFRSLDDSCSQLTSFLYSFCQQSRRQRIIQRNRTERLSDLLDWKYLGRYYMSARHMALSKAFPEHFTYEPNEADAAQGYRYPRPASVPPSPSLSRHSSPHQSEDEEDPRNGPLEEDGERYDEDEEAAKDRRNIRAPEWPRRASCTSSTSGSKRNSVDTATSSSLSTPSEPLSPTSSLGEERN
hGYS1 enzyme (recombinant hGYS1/GN1 protein), sequence (P46976 whole entry partner): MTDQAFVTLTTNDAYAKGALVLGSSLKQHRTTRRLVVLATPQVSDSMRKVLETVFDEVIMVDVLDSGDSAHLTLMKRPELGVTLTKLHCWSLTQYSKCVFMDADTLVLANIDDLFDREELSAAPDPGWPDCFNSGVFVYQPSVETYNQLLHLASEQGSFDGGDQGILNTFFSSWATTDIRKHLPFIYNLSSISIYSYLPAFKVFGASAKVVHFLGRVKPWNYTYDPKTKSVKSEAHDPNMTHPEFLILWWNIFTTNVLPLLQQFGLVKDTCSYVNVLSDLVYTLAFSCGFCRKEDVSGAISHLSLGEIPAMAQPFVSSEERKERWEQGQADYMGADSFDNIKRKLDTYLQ

SMILES | IC50 [1] [nM] | IC50 ([2]; HeLa, 24 h) [nM] | IC50 [2] [nM]
CCn1cccc(CC(=O)N2C[C@H](F)C[C@H]2C(=O)N[C@@H](c2ccccc2)c2ccc(C3CC(F)(F)C3)c(F)n2)c1=O [Compound 526, (2S,4R)-N-[(S)-[5-(3,3-difluorocyclobutyl)-6-fluoropyridin-2-yl](phenyl)methyl]-1-[2-(1-ethyl-2-oxo-1,2-dihydropyridin-3-yl)acetyl]-4-fluoropyrrolidine-2-carboxamide] | 11 | 130 | 
O=C(N[C@@H](c1ccccc1)c1ccc(C2CC(F)(F)C2)c(F)n1)[C@@H]1C[C@@H](F)CN1C(=O)Cc1nc(C(F)(F)F)co1 [Compound 528, (2S,4R)-N-[(S)-[5-(3,3-difluorocyclobutyl)-6-fluoropyridin-2-yl](phenyl)methyl]-4-fluoro-1-{2-[4-(trifluoromethyl)-1,3-oxazol-2-yl]acetyl}pyrrolidine-2-carboxamide] | 15 | 330 | 
CCn1ccnc(CC(=O)N2C[C@H](F)C[C@H]2C(=O)N[C@@H](c2ccccc2)c2ccc(C3CC(F)(F)C3)c(F)n2)c1=O [Compound 531, (2S,4R)-N-[(S)-[5-(3,3-difluorocyclobutyl)-6-fluoropyridin-2-yl](phenyl)methyl]-1-[2-(4-ethyl-3-oxo-3,4-dihydropyrazin-2-yl)acetyl]-4-fluoropyrrolidine-2-carboxamide] | 8 | 60 | 
O=C(N[C@@H](c1ccccc1)c1ccc(C2CC(F)(F)C2)cn1)[C@@H]1C[C@@H](F)CN1C(=O)Cc1nc(C(F)(F)F)co1 [Compound 543, (2S,4R)-N-[(S)-[5-(3,3-difluorocyclobutyl)pyridin-2-yl](phenyl)methyl]-4-fluoro-1-{2-[4-(trifluoromethyl)-1,3-oxazol-2-yl]acetyl}pyrrolidine-2-carboxamide] | 49 | 610 | 
O=C(N[C@H](c1ccccc1)c1ccc(C2CC(F)(F)C2)c(F)c1)[C@@H]1C[C@@H](F)CN1C(=O)CNC(=O)N1CCC1 [Compound 545, (2S,4R)-1-((azetidine-1-carbonyl)glycyl)-N—((R)-(4-(3,3-difluorocyclobutyl)-3-fluorophenyl)(phenyl)methyl)-4-fluoropyrrolidine-2-carboxamide] | 1680 | > 30000 | 
O=C(N[C@@H](c1ccccc1)c1ccc(C2CC(F)(F)C2)c(F)c1)[C@@H]1C[C@@H](F)CN1C(=O)Cc1nc(C(F)(F)F)co1 [Compound 555, (2S,4R)-N-[(S)-[4-(3,3-difluorocyclobutyl)-3-fluorophenyl](phenyl)methyl]-4-fluoro-1-{2-[4-(trifluoromethyl)-1,3-oxazol-2-yl]acetyl}pyrrolidine-2-carboxamide] | 97 | 660 | 
Cc1cn(CC(=O)N2C[C@H](F)C[C@H]2C(=O)N[C@H](c2ccccc2)c2ccc(C3(C)CC3)c(F)c2)c(=O)[nH]c1=O [Compound 557, (2S,4R)-4-fluoro-N—((R)-(3-fluoro-4-(1-methylcyclopropyl)phenyl)(phenyl)methyl)-1-(2-(5-methyl-2,4-dioxo-3,4-dihydropyrimidin-1(2H)-yl)acetyl)pyrrolidine-2-carboxamide] | 424 | 5780 | 
CC(C)(C)OC(=O)n1c(CC(=O)N2C[C@H](F)C[C@H]2C(=O)N[C@@H](c2ccccc2)c2ccc(C3(C)CC3)c(F)n2)cc2ccccc21 [Compound 601, tert-butyl 2-{2-[(2S,4R)-4-fluoro-2-{[(S)-[6-fluoro-5-(1-methylcyclopropyl)pyridin-2-yl](phenyl)methyl]carbamoyl}pyrrolidin-1-yl]-2-oxoethyl}-1H-indole-1-carboxylate] | 34 | 710 | 
COC(=O)NCc1cccc([C@H](NC(=O)[C@@H]2C[C@@H](F)CN2C(=O)Cc2cnn[nH]2)c2ccc(C(C)C)c(F)n2)c1 [Compound 638, methyl (3-((S)-((2S,4R)-1-(2-(1H-1,2,3-triazol-5-yl)acetyl)-4-fluoropyrrolidine-2-carboxamido)(6-fluoro-5-isopropylpyridin-2-yl)methyl)benzyl)carbamate] | 399 |  | > 23400
CCN(CC)c1cnnn1CC(=O)N1C[C@H](F)C[C@H]1C(=O)N[C@@H](c1ccccc1)c1ccc(C(C)C)cn1 [Compound 713, (2S,4R)-1-{2-[5-(diethylamino)-1H-1,2,3-triazol-1-yl]acetyl}-4-fluoro-N-[(S)-phenyl[5-(propan-2-yl)pyridin-2-yl]methyl]pyrrolidine-2-carboxamide] | 74 | 860 | 

The next lines start with results.

IC50 [1] [nM] | IC50 ([2]; HeLa, 24 h) [nM] | SMILES | IC50 [2] [nM]
6 | 190 | CCOc1ncc(CC(=O)N2C[C@H](F)C[C@H]2C(=O)N[C@@H](c2ccccc2)c2ccc(C3CC(F)(F)C3)c(F)n2)cc1C [Compound 524, (2S,4R)-N-[(S)-[5-(3,3-difluorocyclobutyl)-6-fluoropyridin-2-yl](phenyl)methyl]-1-[2-(6-ethoxy-5-methylpyridin-3-yl)acetyl]-4-fluoropyrrolidine-2-carboxamide] | 
4 | 50 | CCn1cc(C)cc(CC(=O)N2C[C@H](F)C[C@H]2C(=O)N[C@@H](c2ccccc2)c2ccc(C3CC(F)(F)C3)c(F)n2)c1=O [Compound 525, (2S,4R)-N-[(S)-[5-(3,3-difluorocyclobutyl)-6-fluoropyridin-2-yl](phenyl)methyl]-1-[2-(1-ethyl-5-methyl-2-oxo-1,2-dihydropyrdin-3-yl)acetyl]-4-fluoropyrrolidine-2-carboxamide] | 
7 | 250 | CCn1cc(CC(=O)N2C[C@H](F)C[C@H]2C(=O)N[C@@H](c2ccccc2)c2ccc(C3CC(F)(F)C3)c(F)n2)ncc1=O [Compound 527, (2S,4R)-N-[(S)-[5-(3,3-difluorocyclobutyl)-6-fluoropyridin-2-yl](phenyl)methyl]-1-[2-(4-ethyl-5-oxo-4,5-dihydropyrazin-2-yl)acetyl]-4-fluoropyrrolidine-2-carboxamide] | 
16 | 1040 | O=C(N[C@@H](c1ccccc1)c1ccc(C2CC(F)(F)C2)c(F)n1)[C@@H]1C[C@@H](F)CN1C(=O)Cc1ncc[nH]c1=O [Compound 529, (2S,4R)-N-[(S)-[5-(3,3-difluorocyclobutyl)-6-fluoropyridin-2-yl](phenyl)methyl]-4-fluoro-1-[2-(3-oxo-3,4-dihydropyrazin-2-yl)acetyl]pyrrolidine-2-carboxamide] | 
12 | 910 | O=C(N[C@@H](c1ccccc1)c1ccc(C2CC(F)(F)C2)c(F)n1)[C@@H]1C[C@@H](F)CN1C(=O)Cc1c[nH]c(=O)cn1 [Compound 530, (2S,4R)-N-[(S)-[5-(3,3-difluorocyclobutyl)-6-fluoropyridin-2-yl](phenyl)methyl]-4-fluoro-l-[2-(5-oxo-4,5-dihydropyrazin-2-yl)acetyl]pyrrolidine-2-carboxamide] | 
1580 | > 22100 | CC1(c2ccc([C@@H](NC(=O)[C@@H]3C[C@@H](F)CN3C(=O)Cc3cnn[nH]3)c3cccnc3)cc2F)CC1 [Compound 559, (2S,4R)-4-fluoro-N-[(R)-[3-fluoro-4-(1-methylcyclopropyl)phenyl](pyridin-3-yl)methyl]-1-[2-(1H-1,2,3-triazol-5-yl)acetyl]pyrrolidine-2-carboxamide] | 
153 | 2180 | CC1(c2ccc([C@@H](NC(=O)[C@@H]3C[C@@H](F)CN3C(=O)Cc3cc4ccccc4[nH]3)c3ccccc3)nc2F)CC1 [Compound 598, (2S,4R)-4-fluoro-N-[(S)-[6-fluoro-5-(1-methylcyclopropyl)pyridin-2-yl](phenyl)methyl]-1-[2-(1H-indol-2-yl)acetyl]pyrrolidine-2-carboxamide] | 
1010 | > 30000 | CC(=O)NCc1cccc([C@H](NC(=O)[C@@H]2C[C@@H](F)CN2C(=O)Cc2cnn[nH]2)c2ccc(C(C)C)c(F)n2)c1 [Compound 655, (2S,4R)-N-[(S)-[3-(acetamidomethyl)phenyl][6-fluoro-5-(propan-2-yl)pyridin-2-yl]methyl]-4-fluoro-1-[2-(1H-1,2,3-triazol-5-yl)acetyl]pyrrolidine-2-carboxamide] | 
1300 | 10800 | CNC(=O)NCc1cccc([C@H](NC(=O)[C@@H]2C[C@@H](F)CN2C(=O)Cc2cnn[nH]2)c2ccc(C(C)C)c(F)n2)c1 [Compound 656, (2S,4R)-4-fluoro-N-[(S)-[6-fluoro-5-(propan-2-yl)pyridin-2-yl](3-{[(methylcarbamoyl)amino]methyl}phenyl)methyl]-1-[2-(1H-1,2,3-triazol-5-yl)acetyl]pyrrolidine-2-carboxamide] | 
1330 | 13800 | CC1(c2ccc([C@H](NC(=O)[C@@H]3C[C@@H](F)CN3C(=O)Cc3cnn[nH]3)c3ccccc3)cc2F)CCC1 [Compound 684, (2S,4R)-4-fluoro-N-[(R)-[3-fluoro-4-(1-methylcyclobutyl)phenyl](phenyl)methyl]-1-[2-(1H-1,2,3-triazol-5-yl)acetyl]pyrrolidine-2-carboxamide] | 
3820 | > 30000 | CC(C)c1ccc([C@H](NC(=O)[C@@H]2C[C@@H](F)CN2C(=O)Cc2cnn[nH]2)c2cccc(-c3ccn[nH]3)c2)nc1F [Compound 687, (2S,4R)-1-(2-(1H-1,2,3-triazol-5-yl)acetyl)-N—((R)-(3-(1H-pyrazol-5-yl)phenyl)(6-fluoro-5-isopropylpyridin-2-yl)methyl)-4-fluoropyrrolidine-2-carboxamide] | 
15 | 330 | COc1nc(CC(=O)N2C[C@H](F)C[C@H]2C(=O)N[C@@H](c2ccccc2)c2ccc(C(C)C)cn2)nn1C [Compound 712, (2S,4R)-4-fluoro-1-[2-(5-methoxy-1-methyl-1H-1,2,4-triazol-3-yl)acetyl]-N-[(S)-phenyl[5-(propan-2-yl)pyridin-2-yl]methyl]pyrrolidine-2-carboxamide] | 
